Measured values taken from PubChem BioAssay AID248 (DTP/NCI, 2004).
Where “and” joins values, the source holds several entries; their conditions need not be identical. Identical values can stand only once. Inconclusive results and toxic doses are left out. Cut-off read from the data, not from the text of the source: active = T/C of 150% or more; inactive = T/C below 125%. Peptide text beside a SMILES is read from it. * marks the point of attachment. Boc = CC(C)(C)OC(=O)*; Bn = c1ccc(C*)cc1

Test system: L1210 leukemia ip in BDF1 mice, survival T/C
Assay: NCI In Vivo Anticancer Drug Screen. Data for tumor model L1210 Leukemia (intraperitoneal) in B6D2F1 (BDF1) mice
Conditions: endpoint: mean survival time, higher = longer survival
Procedure, shortened: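 In this screen, tumor-bearing mice given compound are compared to those given vehicle, and their survival values are reported as a treated-to-control quotient.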

[1] = dose: 50.0 mg/kg/injection, schedule: Q01DX009 (ip), vehicle: saline
[2] = dose: 100.0 mg/kg/injection, schedule: Q01DX009 (ip), vehicle: Klucel (hydroxypropylcellulose) (HPC)
[3] = dose: 100.0 mg/kg/injection, schedule: Q01DX009 (ip), vehicle: saline
[4] = dose: 100.0 mg/kg/injection, schedule: Q04DX002 (ip), vehicle: saline with Tween-80
[5] = dose: 200.0 mg/kg/injection, schedule: Q01DX009 (ip), vehicle: Klucel (hydroxypropylcellulose) (HPC)
[6] = dose: 200.0 mg/kg/injection, schedule: Q01DX009 (ip), vehicle: saline
[7] = dose: 200.0 mg/kg/injection, schedule: Q04DX002 (ip), vehicle: saline with Tween-80
[8] = dose: 400.0 mg/kg/injection, schedule: Q04DX002 (ip), vehicle: saline with Tween-80
[9] = dose: 100.0 mg/kg/injection, schedule: Q04DX003 (ip), vehicle: Klucel (hydroxypropylcellulose) (HPC)
[10] = dose: 200.0 mg/kg/injection, schedule: Q04DX003 (ip), vehicle: Klucel (hydroxypropylcellulose) (HPC)
[11] = dose: 400.0 mg/kg/injection, schedule: Q04DX003 (ip), vehicle: Klucel (hydroxypropylcellulose) (HPC)
[12] = dose: 100.0 mg/kg/injection, schedule: Q04DX003 (ip), vehicle: saline with Tween-80
[13] = dose: 200.0 mg/kg/injection, schedule: Q04DX003 (ip), vehicle: saline with Tween-80
[14] = dose: 400.0 mg/kg/injection, schedule: Q04DX003 (ip), vehicle: saline with Tween-80
[15] = dose: 50.0 mg/kg/injection, schedule: Q01DX001 (ip), vehicle: saline
[16] = dose: 100.0 mg/kg/injection, schedule: Q01DX001 (ip), vehicle: saline
[17] = dose: 200.0 mg/kg/injection, schedule: Q01DX001 (ip), vehicle: saline
[18] = dose: 100.0 mg/kg/injection, schedule: Q01DX001 (ip), vehicle: carboxymethylcellulose (CMC)
[19] = dose: 200.0 mg/kg/injection, schedule: Q01DX001 (ip), vehicle: carboxymethylcellulose (CMC)
[20] = dose: 400.0 mg/kg/injection, schedule: Q01DX001 (ip), vehicle: carboxymethylcellulose (CMC)
[21] = dose: 100.0 mg/kg/injection, schedule: Q04DX003 (ip), vehicle: saline
[22] = dose: 200.0 mg/kg/injection, schedule: Q04DX003 (ip), vehicle: saline

Measured: T/C

O=C(O)CCC(=O)c1ccccc1
inactive: [1] 97 % of control | [2] 100 % of control | [3] 97 % of control | dose: 100.0 mg/kg/injection, schedule: Q04DX002 (ip), vehicle: Klucel (hydroxypropylcellulose) (HPC) 97 % of control | [4] 108 % of control | [5] 96 % of control | [6] 105 % of control | dose: 200.0 mg/kg/injection, schedule: Q04DX002 (ip), vehicle: Klucel (hydroxypropylcellulose) (HPC) 91 % of control | [7] 105 % of control | dose: 400.0 mg/kg/injection, schedule: Q01DX009 (ip), vehicle: Klucel (hydroxypropylcellulose) (HPC) 107 % of control | dose: 400.0 mg/kg/injection, schedule: Q04DX002 (ip), vehicle: Klucel (hydroxypropylcellulose) (HPC) 87 % of control | [8] 105 % of control

N=C(N)N=Nc1ccc(NN=C(N)N)c2ccccc12
inactive: dose: 15.0 mg/kg/injection, schedule: Q01DX Z (ip), vehicle: saline 94 % of control | dose: 15.0 mg/kg/injection, schedule: Q01DX Z (oral), vehicle: other 103 % of control | dose: 30.0 mg/kg/injection, schedule: Q01DX Z (ip), vehicle: saline 102 % of control | dose: 30.0 mg/kg/injection, schedule: Q01DX Z (oral), vehicle: other 98 % of control | dose: 60.0 mg/kg/injection, schedule: Q01DX Z (oral), vehicle: other 98 % of control | dose: 120.0 mg/kg/injection, schedule: Q01DX Z (oral), vehicle: other 95 % of control

CCCCCCCCCCCCCCOc1ccc(C=O)cc1OC
inactive: [9] 96 % of control | [10] 93 % of control | [11] 91 % of control

Cc1ccc(C)c(Cc2c(C=O)[nH]c(=S)[nH]c2=O)c1
inactive: [12] 97 % of control | [13] 101 % of control | [14] 110 % of control

O=C(CCCCC(=O)OCCBr)OCCBr
inactive: dose: 20.0 mg/kg/injection, schedule: Q04DX003 (ip), vehicle: Klucel (hydroxypropylcellulose) (HPC) 100 % of control | dose: 40.0 mg/kg/injection, schedule: Q04DX003 (ip), vehicle: Klucel (hydroxypropylcellulose) (HPC) 105 % of control | dose: 80.0 mg/kg/injection, schedule: Q04DX003 (ip), vehicle: Klucel (hydroxypropylcellulose) (HPC) 114 % of control | [10] 102 % of control

CC(C)(C)OC(=O)NC(CO)C(=O)NC(Cc1ccc(OCc2ccccc2)cc1)C(=O)NCC(=O)O (stereo not drawn) (Boc-Ser-Tyr(Bn)-Gly-OH; configuration not given here)
inactive: dose: 50.0 mg/kg/injection, schedule: Q01DX005 (ip), vehicle: saline 100 % of control | dose: 200.0 mg/kg/injection, schedule: Q01DX005 (ip), vehicle: saline 105 % of control | dose: 400.0 mg/kg/injection, schedule: Q01DX005 (ip), vehicle: saline 91 % of control

COC(=O)[C@]1(C)CCC[C@]2(C)c3cc(C(C)=O)c(C(C)C)cc3CC[C@@H]12
inactive: [12] 102 % of control | [13] 105 % of control | [14] 98 % of control

CC1C(=O)C2C1CS2(=O)=O (stereo unspecified)
inactive: dose: 100.0 mg/kg/injection, schedule: Q04DX002 (ip), vehicle: DMSO 97 % of control | dose: 200.0 mg/kg/injection, schedule: Q04DX002 (ip), vehicle: DMSO 97 % of control | dose: 400.0 mg/kg/injection, schedule: Q04DX002 (ip), vehicle: DMSO 91 % of control

COc1ccccc1CN1CCCN(Cc2ccccc2OC)C1c1cc(Br)ccc1O
inactive: [15] 95 % of control | [16] 103 % of control | [17] 103 % of control | dose: 400.0 mg/kg/injection, schedule: Q01DX001 (ip), vehicle: saline 103 % of control

COc1cc(CC2=NCCc3cc(OC)c(OCc4ccccc4)cc32)ccc1OCc1ccccc1
inactive: dose: 100.0 mg/kg/injection, schedule: Q01DX009 (ip), vehicle: saline with Tween-80 94 % of control | dose: 200.0 mg/kg/injection, schedule: Q01DX009 (ip), vehicle: saline with Tween-80 100 % of control

CCc1c(O)nc2ccccn2c1=O
inactive: [18] 98 % of control | [19] 109 % of control | [20] 113 % of control

CCc1cccc(CC)c1N1C(=O)C2C(C1=O)C1(Cl)C(Cl)=C(Cl)C2(Cl)C1(Cl)Cl (stereo unspecified)
inactive: dose: 25.0 mg/kg/injection, schedule: Q01DX009 (ip), vehicle: Klucel (hydroxypropylcellulose) (HPC) 98 % of control | dose: 25.0 mg/kg/injection, schedule: Q04DX003 (ip), vehicle: Klucel (hydroxypropylcellulose) (HPC) 91 % of control | dose: 50.0 mg/kg/injection, schedule: Q01DX009 (ip), vehicle: Klucel (hydroxypropylcellulose) (HPC) 102 % of control | dose: 50.0 mg/kg/injection, schedule: Q04DX003 (ip), vehicle: Klucel (hydroxypropylcellulose) (HPC) 93 % of control | [2] 105 % of control | [9] 106 % of control and 88 % of control

CC(C)=CCC(=O)Nc1ccc(Cl)nn1
inactive: [9] 86 % of control | [10] 91 % of control | [11] 100 % of control

O=S1(=O)CCCC1
inactive: [3] 104 % of control | [21] 104 % of control | [6] 98 % of control | [22] 100 % of control | dose: 400.0 mg/kg/injection, schedule: Q01DX009 (ip), vehicle: saline 96 % of control | dose: 400.0 mg/kg/injection, schedule: Q04DX003 (ip), vehicle: saline 98 % of control

O=Cc1cc(Cl)ccc1O
inactive: [2] 108 % of control | [5] 102 % of control

C=C(Br)CNC(=O)C(C)(C)C
inactive: [12] 97 % of control | [13] 97 % of control | [14] 98 % of control

N=C(N)SCc1ccc(C(=O)Oc2ccc([N+](=O)[O-])cc2)cc1
inactive: dose: 25.0 mg/kg/injection, schedule: Q01DX009 (ip), vehicle: saline 97 % of control | [1] 100 % of control and 103 % of control | [3] 106 % of control | [21] 101 % of control | [22] 98 % of control

CC(C)/C(=N\N=C(\c1ccccc1)C(C)C)c1ccccc1
inactive: [4] 94 % of control | [7] 87 % of control | [8] 97 % of control

CCCCCCCCOC(=O)Nc1ccc(S(=O)(=O)N(C)C)cc1
inactive: [18] 98 % of control | [19] 97 % of control | [20] 89 % of control

Cn1c(=O)c2[nH]c(C3CC3)nc2n(C)c1=O
inactive: [15] 113 % of control | [16] 101 % of control | [17] 98 % of control

COCCN1CCC(CN2c3ccccc3Sc3ccccc32)C1 (stereo unspecified)
inactive: [21] 111 % of control
